For eleven compounds, IC50 results are on record in ChEMBL document CHEMBL1136405, “Acyclic N-(azacycloalkyl)bisindolylmaleimides: isozyme selective inhibitors of PKCbeta” (Bioorg Med Chem Lett, 2003).

Assay [1] in a line: Inhibition of purified rat brain casein kinase II.
Assay [2] is described as follows: Inhibition of cAMP dependent protein kinase catalytic subunit of bovine heart. Details: species or system Bos taurus.
In a further assay the target is Protein kinase C (PKC). As to the kind of experiment: Inhibition of purified rat brain protein kinase C (RB-PKC).
The target of another assay is CaM kinase II (Homo sapiens, UniProt Q13557+Q13555+Q13554+Q9UQM7). The assay can be described thus: Inhibition of purified mammalian brain [Ca(2+)]/Calmodulin dependent kinase.
The target in assay [3] is T1, Protein kinase C zeta type (Homo sapiens, UniProt Q05513).
T1 sequence (Q05513 whole entry): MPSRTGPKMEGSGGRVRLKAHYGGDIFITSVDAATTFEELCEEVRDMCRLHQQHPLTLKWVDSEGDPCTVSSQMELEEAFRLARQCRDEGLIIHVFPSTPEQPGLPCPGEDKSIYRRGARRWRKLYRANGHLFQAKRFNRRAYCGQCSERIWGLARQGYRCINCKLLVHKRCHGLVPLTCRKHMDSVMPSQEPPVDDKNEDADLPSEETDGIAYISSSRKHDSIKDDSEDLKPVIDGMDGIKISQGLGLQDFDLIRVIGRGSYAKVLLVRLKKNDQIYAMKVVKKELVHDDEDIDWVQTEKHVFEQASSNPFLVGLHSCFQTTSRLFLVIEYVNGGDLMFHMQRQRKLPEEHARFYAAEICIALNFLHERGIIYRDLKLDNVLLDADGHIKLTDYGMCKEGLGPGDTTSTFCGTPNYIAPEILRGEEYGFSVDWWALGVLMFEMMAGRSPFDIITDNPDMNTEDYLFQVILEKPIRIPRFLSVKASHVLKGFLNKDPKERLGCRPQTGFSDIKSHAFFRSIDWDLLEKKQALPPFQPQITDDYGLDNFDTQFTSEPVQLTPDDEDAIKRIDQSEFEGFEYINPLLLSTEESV
As to the kind of experiment: Inhibition of Protein kinase C zeta.

Assay [4] addresses Proto-oncogene tyrosine-protein kinase Src (Homo sapiens, UniProt P12931). The assay can be described thus: Inhibition of Src protein tyrosine kinase.
For assay [5], the target named is Protein kinase C alpha type (Homo sapiens, UniProt P17252). As to the kind of experiment: Inhibition of Protein kinase C alpha.
For assay [6], the target named is T2, Protein kinase C beta type (Homo sapiens, UniProt P05771). The assay can be described thus: Inhibition of Protein kinase C beta 2.
Assay [7] deals with Protein kinase C delta type (Homo sapiens, UniProt Q05655). The assay can be described thus: Inhibition of Protein kinase C delta.
For assay [8], the target named is Protein kinase C gamma type (Homo sapiens, UniProt P05129). The assay can be described thus: Inhibition of Protein kinase C gamma.
Assay [9] addresses T3, Protein kinase C epsilon type (Homo sapiens, UniProt Q02156).
T3 sequence (Q02156 whole entry): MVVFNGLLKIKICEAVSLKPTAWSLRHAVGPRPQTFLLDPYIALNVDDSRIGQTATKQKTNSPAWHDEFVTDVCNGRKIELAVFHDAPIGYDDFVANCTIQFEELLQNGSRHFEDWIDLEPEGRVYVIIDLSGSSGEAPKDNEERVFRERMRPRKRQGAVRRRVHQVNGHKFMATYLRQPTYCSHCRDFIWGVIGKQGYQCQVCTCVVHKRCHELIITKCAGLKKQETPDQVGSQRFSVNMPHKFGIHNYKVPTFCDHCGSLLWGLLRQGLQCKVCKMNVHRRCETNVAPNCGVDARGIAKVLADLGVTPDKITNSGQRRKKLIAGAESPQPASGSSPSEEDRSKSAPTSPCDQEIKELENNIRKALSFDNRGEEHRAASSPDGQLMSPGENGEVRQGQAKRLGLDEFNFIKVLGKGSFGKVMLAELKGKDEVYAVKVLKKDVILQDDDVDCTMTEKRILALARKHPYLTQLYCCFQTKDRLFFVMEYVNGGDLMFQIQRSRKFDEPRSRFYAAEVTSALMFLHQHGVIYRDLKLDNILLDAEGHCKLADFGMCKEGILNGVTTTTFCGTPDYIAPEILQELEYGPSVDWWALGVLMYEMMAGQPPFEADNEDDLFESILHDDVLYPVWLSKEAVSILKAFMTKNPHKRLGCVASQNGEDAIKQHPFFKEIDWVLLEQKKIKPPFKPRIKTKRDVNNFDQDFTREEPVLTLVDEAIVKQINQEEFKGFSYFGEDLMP
The assay can be described thus: Inhibition of Protein kinase C epsilon.

Assay [10] concerns the target Protein kinase C eta type (Homo sapiens, UniProt P24723). As to the kind of experiment: Inhibition of Protein kinase C eta.
The target in assay [11] is T2, Protein kinase C beta type. As to the kind of experiment: Inhibition of Protein kinase C beta 1.

pIC50: −log10 of the molar value.

T2 sequence (P05771 whole entry): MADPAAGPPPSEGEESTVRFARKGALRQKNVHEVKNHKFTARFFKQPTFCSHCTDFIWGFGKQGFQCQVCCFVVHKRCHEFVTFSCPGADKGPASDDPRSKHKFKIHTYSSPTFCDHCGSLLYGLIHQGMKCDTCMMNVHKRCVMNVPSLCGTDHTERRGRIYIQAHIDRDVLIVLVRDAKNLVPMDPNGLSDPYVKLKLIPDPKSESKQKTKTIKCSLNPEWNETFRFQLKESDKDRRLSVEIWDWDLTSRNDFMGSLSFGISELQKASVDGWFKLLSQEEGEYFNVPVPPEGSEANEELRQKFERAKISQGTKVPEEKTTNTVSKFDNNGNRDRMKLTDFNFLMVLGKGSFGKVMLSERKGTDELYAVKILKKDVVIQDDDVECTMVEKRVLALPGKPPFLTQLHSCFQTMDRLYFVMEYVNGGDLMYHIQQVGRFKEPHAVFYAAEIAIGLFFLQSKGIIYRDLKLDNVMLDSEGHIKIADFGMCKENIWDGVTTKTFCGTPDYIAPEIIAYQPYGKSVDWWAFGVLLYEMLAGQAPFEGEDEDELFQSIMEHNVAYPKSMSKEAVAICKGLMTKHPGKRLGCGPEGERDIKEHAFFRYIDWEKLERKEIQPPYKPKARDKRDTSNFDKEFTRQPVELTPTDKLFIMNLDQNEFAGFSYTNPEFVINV
Sequence of Proto-oncogene tyrosine-protein kinase Src (P12931 2-536 limits assumed): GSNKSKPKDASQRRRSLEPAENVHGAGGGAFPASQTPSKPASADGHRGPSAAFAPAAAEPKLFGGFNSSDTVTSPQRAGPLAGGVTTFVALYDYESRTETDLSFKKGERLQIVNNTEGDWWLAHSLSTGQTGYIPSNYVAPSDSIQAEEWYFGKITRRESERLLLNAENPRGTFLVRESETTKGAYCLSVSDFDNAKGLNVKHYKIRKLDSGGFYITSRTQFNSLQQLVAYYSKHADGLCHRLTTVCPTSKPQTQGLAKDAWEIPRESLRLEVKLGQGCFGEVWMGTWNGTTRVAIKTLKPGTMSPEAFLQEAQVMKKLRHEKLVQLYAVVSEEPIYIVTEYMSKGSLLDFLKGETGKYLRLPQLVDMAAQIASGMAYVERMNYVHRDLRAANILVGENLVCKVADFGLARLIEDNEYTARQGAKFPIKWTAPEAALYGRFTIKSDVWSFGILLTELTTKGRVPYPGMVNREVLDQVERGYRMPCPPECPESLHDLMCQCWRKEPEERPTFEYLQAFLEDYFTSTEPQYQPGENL
Sequence of Protein kinase C delta type (Q05655 whole entry): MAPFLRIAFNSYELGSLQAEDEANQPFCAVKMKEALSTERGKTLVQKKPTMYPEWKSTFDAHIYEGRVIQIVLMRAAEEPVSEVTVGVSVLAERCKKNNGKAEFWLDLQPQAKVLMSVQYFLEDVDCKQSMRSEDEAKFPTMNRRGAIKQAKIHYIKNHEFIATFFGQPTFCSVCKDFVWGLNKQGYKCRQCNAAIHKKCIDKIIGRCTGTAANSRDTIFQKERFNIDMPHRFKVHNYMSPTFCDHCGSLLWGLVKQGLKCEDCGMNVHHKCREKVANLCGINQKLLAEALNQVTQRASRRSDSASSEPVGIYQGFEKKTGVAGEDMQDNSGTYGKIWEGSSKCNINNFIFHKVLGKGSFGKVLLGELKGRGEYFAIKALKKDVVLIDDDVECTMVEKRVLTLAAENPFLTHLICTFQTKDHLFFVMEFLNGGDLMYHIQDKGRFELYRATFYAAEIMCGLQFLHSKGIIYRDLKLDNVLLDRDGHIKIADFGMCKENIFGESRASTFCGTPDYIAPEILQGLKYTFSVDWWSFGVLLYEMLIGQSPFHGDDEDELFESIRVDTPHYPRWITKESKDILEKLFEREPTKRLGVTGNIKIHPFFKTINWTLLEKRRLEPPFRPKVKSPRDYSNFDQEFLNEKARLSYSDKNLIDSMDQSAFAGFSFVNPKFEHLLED
Sequence of Protein kinase C eta type (P24723 whole entry): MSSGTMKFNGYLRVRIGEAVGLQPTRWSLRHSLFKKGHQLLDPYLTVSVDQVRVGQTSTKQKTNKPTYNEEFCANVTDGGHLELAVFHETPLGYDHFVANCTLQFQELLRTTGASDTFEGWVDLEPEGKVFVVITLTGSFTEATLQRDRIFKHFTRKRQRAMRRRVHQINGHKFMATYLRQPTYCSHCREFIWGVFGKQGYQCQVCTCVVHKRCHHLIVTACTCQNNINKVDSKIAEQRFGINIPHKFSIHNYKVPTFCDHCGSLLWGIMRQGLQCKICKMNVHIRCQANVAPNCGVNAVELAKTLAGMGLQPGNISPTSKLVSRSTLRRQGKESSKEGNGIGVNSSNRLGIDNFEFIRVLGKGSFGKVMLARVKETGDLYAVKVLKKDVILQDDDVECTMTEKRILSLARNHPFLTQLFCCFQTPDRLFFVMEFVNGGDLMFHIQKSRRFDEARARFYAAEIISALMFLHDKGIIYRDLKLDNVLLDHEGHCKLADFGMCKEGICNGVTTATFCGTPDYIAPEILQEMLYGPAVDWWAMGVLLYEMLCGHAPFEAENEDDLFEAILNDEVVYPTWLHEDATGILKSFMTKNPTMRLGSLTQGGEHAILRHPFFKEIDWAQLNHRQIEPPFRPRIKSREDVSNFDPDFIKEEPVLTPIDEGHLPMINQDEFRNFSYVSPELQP

Consider `Cn1cc(C2=C(c3cn(C4CCN(Cc5ccccn5)CC4)c4ccccc34)C(=O)NC2=O)c2ccccc21` [ENZASTAURIN], for which the pIC50 in assay [1] and in assay [2] was less than 4.00 throughout. This compound also returned an IC50 against Protein kinase C (PKC) of 0.7 µM.

On to `Cn1cc(C2=C(c3cn(C4CCN(Cc5ccccc5)CC4)c4ccccc34)C(=O)NC2=O)c2ccccc21`, for which the IC50 against CaM kinase II is more than 40 µM; on Protein kinase C (PKC), 4 µM. Besides, the pIC50 in assay [1] is less than 4.40; in assay [2], less than 4.00; in assay [3] it was less than 4.00; in [4], less than 4.00.

With `Cn1cc(C2=C(c3cn(C4CCN(C(=O)OC(C)(C)C)CC4)c4ccccc34)C(=O)NC2=O)c2ccccc21`, the pIC50 is less than 4.00 in [3]; 5.22 in [5]; 7.10 in [6]; 5.15 in assay [7]; 5.30 in assay [8]; 5.22 in [9]. The negative-log IC50 (pIC50) in assay [10] is 5.10; in assay [11], 6.70.

As for `CN1CCC(n2cc(C3=C(c4cn(C)c5ccccc45)C(=O)NC3=O)c3ccccc32)CC1`, the pIC50 in [1] is less than 4.00; in assay [2] it was 5.15; in [4], less than 4.00. At Protein kinase C (PKC), this compound registered an IC50 of 0.2 µM.

`Cn1cc(C2=C(c3cn(C4CCNCC4)c4ccccc34)C(=O)NC2=O)c2ccccc21`: the figures for the pIC50 in [1] and in assay [2] were less than 4.00 and 6.00, respectively.

`CC(C)N1CCC(n2cc(C3=C(c4cn(C)c5ccccc45)C(=O)NC3=O)c3ccccc32)CC1`: the pIC50 in assay [1] and in assay [2] was less than 4.00 in each case. The IC50 at Protein kinase C (PKC) was 0.25 µM.

Take `CCN1CCC(n2cc(C3=C(c4cn(C)c5ccccc45)C(=O)NC3=O)c3ccccc32)CC1`: the pIC50 in [1] was less than 4.00; in assay [2], 5.10; in assay [4], 4.96.

Consider `CN1CCC(n2cc(C3=C(c4c[nH]c5ccccc45)C(=O)NC3=O)c3ccccc32)CC1`, for which the IC50 turned out to be 3 µM at CaM kinase II and 0.2 µM against Protein kinase C (PKC). The results for the pIC50 in [1], in assay [2] and in [4] were 4.04, 5.40 and 4.08, respectively.

Consider `Cn1cc(C2=C(c3cn(C4CCN(CC5CC5)CC4)c4ccccc34)C(=O)NC2=O)c2ccccc21`, for which the values for the pIC50 in [1], in assay [2] and in [4] were less than 4.00, less than 4.00 and 4.17, respectively. At Protein kinase C (PKC), this compound gave an IC50 of 0.3 µM.

Consider `Cn1cc(C2=C(c3cn(C4CCN(Cc5ccccc5)C4)c4ccccc34)C(=O)NC2=O)c2ccccc21` (stereo unspecified), for which the pIC50 in assay [1] was less than 4.00; in assay [2] it was less than 4.00; in [3], less than 4.00; in [5] it was 5.42; in assay [6] it was 7.62; in assay [7], 5.38. In addition, the pIC50 in [8] was 5.46; in assay [9], 5.03; in assay [10], 7.38; in assay [11] it was 7.66. Further, the IC50 against Protein kinase C (PKC) was determined as 2.8 µM.

In the case of `CN(C)C[C@@H]1CCn2cc(c3ccccc32)C2=C(C(=O)NC2=O)c2cn(c3ccccc23)CCO1`, the pIC50 in [1] and in assay [2] was less than 4.00 each time.
